Bounds are passed on as bounds.

Consider 1 compound from US20250361227A1, “INHIBITORS OF FLI1 AND ERG” (UNIVERSITY OF VIRGINIA PATENT FOUNDATION, priority 2022, published 2025).

Test [1] concerns leukemia cell lines. Nature of the test: Panel of leukemia cell lines. As to conditions: Jurkat, RS4-11, Kasumi, K562, THP-1. It counts as cell-based. As to the method: (§1) The compounds of formula (I), in particular those in Table 3, were tested for their effects on the growth of Ewing sarcoma cell lines as well as a rhabdomyosarcoma cell line as a control. The inhibitors are active against Ewing sarcoma cell lines with sub μM EC50 values but not active with the rhabdomyosarcoma cell line. The relative activity of the compounds in the biochemical assay was also observed in the cellular data, consistent with an on-target mechanism of action. […] The inhibitor decreases expression of the two genes activated by EWS-FL11 and activates the expression of the gene repressed by EWS-FLI1, consistent with an on-target mechanism of action. The inhibitors have also been evaluated across a panel of leukemia cell lines and see selective activity on cell lines with an ERG and/or FLI1 dependence.
ERG inhibitor effects on leukemia cell lines. FIG. 17A-17D and FIG. 18A-18C show the effects of the ERG inhibitor on several leukemia cell lines. […] ERG inhibitors show efficacy against T-ALL cell line (Jurkat) and selective activity against specific leukemia cell lines. […] As expected from previous literature indicating a strong dependence on ERG for T-ALL, the T-ALL cell line Jurkat is quite sensitive to the ERG inhibitors (sub μM IC50 values). […]

The test system of test [2] is Ewing's sarcoma cell lines. As to the kind of experiment: Growth of Ewing's sarcoma cell lines. It is filed as cell-based. The following applies: read-out: IC50 values for inhibition of the growth. On the procedure: as §1
Evaluation of ERG inhibitors on Ewing's sarcoma cell lines. FIGS. 16A-16D show the results of treatment of Ewing's sarcoma cell lines with the bivalent ERG inhibitors. […] Ewing's sarcoma has EWS-FLI1 and EWS-ERG fusions (FLI1 is highly homologous to ERG). ERG inhibitors show submicromolar EC50 values for Ewing's sarcoma cell lines. […] Importantly, for the unrelated rhabdomyosarcoma cell line included in this panel, there was minimal inhibition of growth.

Test [3] has as its target T1, ERG (Homo sapiens, UniProt P11308).
T1 sequence (P11308 1-462 isoform P11308-1): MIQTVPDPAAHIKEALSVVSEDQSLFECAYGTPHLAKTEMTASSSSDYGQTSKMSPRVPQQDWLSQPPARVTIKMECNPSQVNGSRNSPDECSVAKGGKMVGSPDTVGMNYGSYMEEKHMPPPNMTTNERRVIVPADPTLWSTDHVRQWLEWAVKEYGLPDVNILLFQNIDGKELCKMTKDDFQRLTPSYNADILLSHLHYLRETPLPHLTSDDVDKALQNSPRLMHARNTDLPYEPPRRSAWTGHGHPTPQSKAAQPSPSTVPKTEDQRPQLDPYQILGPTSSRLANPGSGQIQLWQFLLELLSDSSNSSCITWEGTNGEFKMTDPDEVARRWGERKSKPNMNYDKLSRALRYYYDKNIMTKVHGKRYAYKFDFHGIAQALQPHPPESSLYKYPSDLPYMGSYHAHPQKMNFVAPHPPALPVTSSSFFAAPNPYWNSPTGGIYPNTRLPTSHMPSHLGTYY
Nature of the test: Time-dependent ERG-DNA fluorescence polarization assay. The following applies: time-dependent inhibition of ERG-DNA binding, irreversible inhibitor. As to the method:
To assay such compounds time-dependent inhibition of ERG-DNA binding was recorded using a fluorescence polarization (FP) based assay and the rates were fitted to derive KI and kinact for the compounds which were ranked based on the kinact/KI values as has been described previously.
These compounds were assayed using the time-dependent ERG-DNA assay described above. Importantly, time-dependent inhibition was observed, a hallmark of irreversible inhibitors. […] ERG inhibitors show time-dependent inhibition characteristics of irreversible inhibitors based on the following formula: […]
Kobs values were determined from the initial slope for the first 15 minutes. NMR chemical shift perturbation data was consistent with 2 binding sites on ERG. FIG. 14A and FIG. 14B show selected changes in chemical shift for resonances in the ^15N-^1H HSQC NMR spectrum of ERGi upon addition of KK-36-25.
In general terms: Fluorescence polarisation rises when a labelled molecule tumbles more slowly, as on binding a larger partner.

As usually defined, the IC50 is the midpoint of a concentration-inhibition curve. As for `Cc1ccc(-c2nc3cc(Cl)c(NC(=O)CCOCCn4cc(COCCOCCOc5ccc(S(=O)(=O)C6CCN(C(=O)/C=C/c7cc8ccccc8o7)C6)cc5)nn4)cc3o2)cc1` (stereo not drawn) [KK-36-25], the “selectivity across leukemia cell lines” value in test [1] is “selective for Leukemia cell lines dependent on ERG”. Also, the IC50 in test [2] is no more than 1 µM. The compound further registered a Ki in test [3] of 6.3 µM.
